Test results published in patent US11414425B2 (priority 2018, dated 2022).
pKi: −log10 of the molar value.

These compounds were tested against α5β3γ2 GABAA receptors (Homo sapiens, UniProt P18507+P31644) (assay: [3H]Ro15-1788 binding, membranes of Ltk cells stably expressing α5β3γ2 GABAA receptors). Settings: not given.
Sequence of α5β3γ2 GABAA receptors (P31644 32-462): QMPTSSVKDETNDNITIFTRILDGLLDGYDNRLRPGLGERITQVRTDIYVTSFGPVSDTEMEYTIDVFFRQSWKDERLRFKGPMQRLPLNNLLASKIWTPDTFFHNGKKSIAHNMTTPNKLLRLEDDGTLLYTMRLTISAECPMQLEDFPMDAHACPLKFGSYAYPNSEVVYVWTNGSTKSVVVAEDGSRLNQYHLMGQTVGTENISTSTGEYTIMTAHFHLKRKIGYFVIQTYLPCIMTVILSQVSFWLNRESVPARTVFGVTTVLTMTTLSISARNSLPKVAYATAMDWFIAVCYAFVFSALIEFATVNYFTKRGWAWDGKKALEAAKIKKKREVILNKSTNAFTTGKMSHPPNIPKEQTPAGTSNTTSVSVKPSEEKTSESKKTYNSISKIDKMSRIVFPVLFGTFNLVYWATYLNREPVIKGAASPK
Sequence of α5β3γ2 GABAA receptors (P28472 26-473 partner): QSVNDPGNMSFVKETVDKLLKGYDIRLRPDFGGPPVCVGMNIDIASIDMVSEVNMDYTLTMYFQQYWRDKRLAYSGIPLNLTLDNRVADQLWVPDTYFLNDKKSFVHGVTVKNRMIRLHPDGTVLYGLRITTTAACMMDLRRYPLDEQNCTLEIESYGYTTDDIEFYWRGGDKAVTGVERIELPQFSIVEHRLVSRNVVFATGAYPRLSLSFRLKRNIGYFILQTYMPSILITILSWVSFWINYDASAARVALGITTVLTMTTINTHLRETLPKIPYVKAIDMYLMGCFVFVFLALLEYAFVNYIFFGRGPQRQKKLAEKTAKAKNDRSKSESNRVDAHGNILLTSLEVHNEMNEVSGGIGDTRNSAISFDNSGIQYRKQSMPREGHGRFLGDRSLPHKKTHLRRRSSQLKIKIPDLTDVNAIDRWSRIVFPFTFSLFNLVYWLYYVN
Sequence of α5β3γ2 GABAA receptors (P18507 40-475): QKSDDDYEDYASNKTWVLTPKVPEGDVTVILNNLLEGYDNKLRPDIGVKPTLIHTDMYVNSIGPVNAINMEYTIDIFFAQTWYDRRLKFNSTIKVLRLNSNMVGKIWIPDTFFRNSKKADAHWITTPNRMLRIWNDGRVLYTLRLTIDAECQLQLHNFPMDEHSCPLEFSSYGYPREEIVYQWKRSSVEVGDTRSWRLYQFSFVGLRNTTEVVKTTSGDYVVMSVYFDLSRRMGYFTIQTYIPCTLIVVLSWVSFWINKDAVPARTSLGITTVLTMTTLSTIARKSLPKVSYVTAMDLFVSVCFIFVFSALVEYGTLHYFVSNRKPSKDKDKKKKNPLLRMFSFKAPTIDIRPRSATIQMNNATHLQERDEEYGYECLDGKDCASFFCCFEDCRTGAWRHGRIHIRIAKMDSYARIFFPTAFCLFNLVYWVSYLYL

| SMILES | pKi |
| --- | --- |
| CC(C)Oc1ccc(C#Cc2ncn3c2Cc2cnnn2-c2cc(Cl)ccc2-3)cn1 [Compound 697] | > 7.00 |
| COc1ccc2c(c1)-n1nncc1Cc1c(C3=NC[C@@H](c4cccc(F)c4)O3)ncn1-2 [Compound 692] | > 7.00 |
| Cc1noc(-c2ncn3c2Cc2c(Cc4ccc(F)cc4)nnn2-c2cc(C(F)(F)F)ccc2-3)n1 [Compound 484] | > 7.00 |
| COc1ccc2c(c1)-n1nncc1Cc1c(C3=NCC(c4cccnc4)O3)ncn1-2 (racemic) [Compound 691] | > 7.00 |
| Fc1cccc(Cc2nnn3c2Cc2c(-c4nc(-c5ccccc5)no4)ncn2-c2ccc(C(F)(F)F)cc2-3)c1 [Compound 551] | 6.00 to 7.00 |
| CCCc1noc(-c2ncn3c2Cc2c(Cc4cccc(F)c4)nnn2-c2cc(Cl)ccc2-3)n1 [Compound 480] | 6.00 to 7.00 |
| Cc1noc(-c2ncn3c2Cc2c(Cc4ccc(F)cc4)nnn2-c2cc(Cl)ccc2-3)n1 [Compound 479] | > 7.00 |
| COCc1nnn2c1Cc1c(C#Cc3cnc(OC)s3)ncn1-c1ccc(OC)cc1-2 [Compound 647] | > 7.00 |
| COc1ccc2c(c1)-n1nncc1Cc1c(-c3cn(-c4ccccc4)nn3)ncn1-2 [Compound 524] | 6.00 to 7.00 |
| Fc1cccc(COCc2ncn3c2Cc2cnnn2-c2cc(Cl)ccc2-3)c1 [Compound 543] | 6.00 to 7.00 |
| Clc1ccc2c(c1)-n1nncc1Cc1c(COc3ccccc3)ncn1-2 [Compound 548] | > 7.00 |
| Clc1ccc2c(c1)-n1nncc1Cc1c(C#Cc3cnc4occc4c3)ncn1-2 [Compound 658] | > 7.00 |

Same assay, conditions: ranges; inhibition of [3H]Ro15-1788 binding

| SMILES | pKi |
| --- | --- |
| COCc1nnc2n1Cc1c(C#Cc3ncc(OC)cn3)ncn1-c1ccc(OC)cc1-2 [Compound 593] | > 7.00 |
| COc1ccc2c(c1)-n1nncc1Cc1c(C#Cc3cnc(OC)s3)ncn1-2 [Compound 621] | > 7.00 |
| COc1ccc(C#Cc2ncn3c2Cc2cnnn2-c2cc(Cl)ccc2-3)cn1 [Compound 533] | > 7.00 |
| Fc1cccc(Cc2nnn3c2Cc2c(-c4nc(-c5ccccc5)no4)ncn2-c2ccc(OC(F)F)cc2-3)c1 [Compound 552] | 6.00 to 7.00 |
| COCc1nnc2n1Cc1c(C#CC(C)(C)C)ncn1-c1ccc(Cl)cc1-2 [Compound 721] | > 7.00 |
| COCc1nnn2c1Cc1c(C3=NC[C@@H](c4ccc(Cl)cc4)O3)ncn1-c1ccc(Cl)cc1-2 [Compound 634] | > 7.00 |
| Fc1cccc(OCc2ncn3c2Cc2cnnn2-c2cc(Cl)ccc2-3)c1 [Compound 546] | > 7.00 |
| COCc1nnc2n1Cc1c(C#Cc3c[nH]nc3OC)ncn1-c1ccc(OC)cc1-2 [Compound 657] | > 7.00 |
| COCc1nnc2n1Cc1c(C#Cc3ccc(C)nc3)ncn1-c1ccc(Cl)cc1-2 [Compound 556] | 6.00 to 7.00 |
| Clc1ccc2c(c1)-c1nnc(Oc3ccccc3)n1Cc1c(C3=N[C@H](c4ccccc4)CO3)ncn1-2 [Compound 541] | > 7.00 |
| Fc1cccc(Cc2nnn3c2Cc2c(-c4nc(-c5ccccc5)no4)ncn2-c2ccc(Cl)cc2-3)c1 [Compound 550] | 6.00 to 7.00 |
| FC(F)Oc1ccc2c(c1)-n1nncc1Cc1c(C3=NC[C@H](c4ccccc4)O3)ncn1-2 [Compound 625] | 6.00 to 7.00 |
| COCc1nnc2n1Cc1c(C#Cc3nc(C)cs3)ncn1-c1ccc(OC)cc1-2 [Compound 602] | > 7.00 |
| COCc1nnc2n1Cc1c(C#Cc3ccc(OC(F)(F)F)cn3)ncn1-c1ccc(OC)cc1-2 [Compound 613] | > 7.00 |
| CCc1cncc(C#Cc2ncn3c2Cn2c(COC)nnc2-c2cc(OC)ccc2-3)c1 [Compound 599] | > 7.00 |
| COCc1nnc2n1Cc1c(C#Cc3ccc(C)cn3)ncn1-c1ccc(Cl)cc1-2 [Compound 557] | > 7.00 |
| COCc1nnc2n1Cc1c(C#Cc3ccc(OC(F)(F)F)cn3)ncn1-c1ccc(Cl)cc1-2 [Compound 580] | > 7.00 |
| CC1(C)OC(c2ncn3c2Cc2cnnn2-c2cc(OC(F)F)ccc2-3)=N[C@H]1c1ccccc1 [Compound 626] | 6.00 to 7.00 |
| COCc1nnn2c1Cc1c(C#Cc3ccnn3C)ncn1-c1ccc(Cl)cc1-2 [Compound 642] | > 7.00 |
| COCc1nnc2n1Cc1c(C#Cc3cnc(C)nc3)ncn1-c1ccc(Cl)cc1-2 [Compound 573] | 6.00 to 7.00 |
| CC(C)OCc1nnc2n1Cc1c(-c3nc(-c4ccccc4)co3)ncn1-c1ccc(Cl)cc1-2 [Compound 276] | > 7.00 |
| COCc1nnc2n1Cc1c(C#Cc3cnc(OC)cn3)ncn1-c1ccc(Cl)cc1-2 [Compound 578] | > 7.00 |
| COCc1nnc2n1Cc1c(C#Cc3ccc(Cl)cn3)ncn1-c1ccc(OC)cc1-2 [Compound 591] | > 7.00 |

| SMILES | pKi |
| --- | --- |
| COCc1nnc2n1Cc1c(C#Cc3cccc(C)n3)ncn1-c1ccc(OC)cc1-2 [Compound 598] | > 7.00 |
| COCc1nnc2n1Cc1c(C#Cc3cccnc3OC)ncn1-c1ccc(Cl)cc1-2 [Compound 614] | > 7.00 |
| COCc1nnc2n1Cc1c(C#Cc3ncc(C)cn3)ncn1-c1ccc(OC)cc1-2 [Compound 595] | 6.00 to 7.00 |
| COCc1nnc2n1Cc1c(-c3nc(C)no3)ncn1-c1cccc(OC)c1-2 [Compound 472] | 6.00 to 7.00 |
| COCc1nnc2n1Cc1c(C#Cc3ccc(C#N)cn3)ncn1-c1ccc(Cl)cc1-2 [Compound 577] | 6.00 to 7.00 |
| COCc1nnc2n1Cc1c(C#Cc3cnc(OC)nc3)ncn1-c1ccc(Cl)cc1-2 [Compound 575] | 6.00 to 7.00 |
| FC(F)(F)c1ccc2c(c1)-n1nncc1Cc1c(C#Cc3ccc(Cl)cc3)ncn1-2 [Compound 502] | > 7.00 |
| COCc1nnc2n1Cc1c(C#Cc3cncnc3)ncn1-c1ccc(Cl)cc1-2 [Compound 569] | > 7.00 |
| CCCc1noc(-c2ncn3c2Cc2c(Cc4ccc(F)cc4)nnn2-c2cc(OC(F)(F)F)ccc2-3)n1 [Compound 486] | > 7.00 |
| CC(C)c1noc(-c2ncn3c2Cc2c(Cc4cccc(F)c4)nnn2-c2cc(C(F)(F)F)ccc2-3)n1 [Compound 487] | 6.00 to 7.00 |
| COCc1nnc2n1Cc1c(C#Cc3ccc(C#N)cn3)ncn1-c1ccc(OC)cc1-2 [Compound 590] | 6.00 to 7.00 |
| C#Cc1ccc2c(c1)-c1nnc(COC)n1Cc1c(C3=N[C@H](CC(C)C)CO3)ncn1-2 [Compound 280] | > 7.00 |
| COc1ncc(C#Cc2ncn3c2Cc2cnnn2-c2cc(Cl)ccc2-3)s1 [Compound 622] | > 7.00 |
| CC(C)c1noc(-c2ncn3c2Cc2c(Cc4ccc(F)cc4)nnn2-c2cc(C(F)(F)F)ccc2-3)n1 [Compound 490] | > 7.00 |
| COCc1nnc2n1Cc1c(C#Cc3ccc(F)cn3)ncn1-c1ccc(OC)cc1-2 [Compound 585] | > 7.00 |
| COCc1nnc2n1Cc1c(C#Cc3ccc(OC)c(F)n3)ncn1-c1ccc(OC)cc1-2 [Compound 583] | 6.00 to 7.00 |
| COCc1nnc2n1Cc1c(C#Cc3cncnc3)ncn1-c1ccc(OC)cc1-2 [Compound 592] | > 7.00 |
| Clc1ccc([C@@H]2CN=C(c3ncn4c3Cc3cnnn3-c3cc(Cl)ccc3-4)O2)cc1 [Compound 719] | > 7.00 |
| Clc1ccc2c(c1)-n1nncc1Cc1c(C#Cc3ccc(-n4cccc4)cc3)ncn1-2 [Compound 702] | > 7.00 |
| CC1(C)OC(c2ncn3c2Cc2cnnn2-c2cc(OC(F)(F)F)ccc2-3)=N[C@@H]1c1ccccc1 [Compound 510] | > 7.00 |
| C#Cc1ncn2c1Cn1c(COCC(F)(F)F)nnc1-c1cc(Cl)ccc1-2 [Compound 342] | > 7.00 |
| COCc1nnc2n1Cc1c(C#Cc3cc(C)ccn3)ncn1-c1ccc(OC)cc1-2 [Compound 564] | 6.00 to 7.00 |
| COc1ccc(C#Cc2ncn3c2Cc2cnnn2-c2cc(OC(F)(F)F)ccc2-3)cc1 [Compound 497] | > 7.00 |

| SMILES | pKi |
| --- | --- |
| COCc1nnc2n1Cc1c(C#Cc3ccc(-n4cccc4)cc3)ncn1-c1ccc(OC)cc1-2 [Compound 713] | > 7.00 |
| CCOc1ccc(C#Cc2ncn3c2Cn2c(COC)nnc2-c2cc(Cl)ccc2-3)cn1 [Compound 709] | 6.00 to 7.00 |
| Cc1noc(-c2ncn3c2Cc2c(Cc4ccc(F)cc4)nnn2-c2cc(OC(F)(F)F)ccc2-3)n1 [Compound 478] | > 7.00 |
| COCc1nnc2n1Cc1c(C#Cc3c[nH]nc3OC)ncn1-c1ccc(Cl)cc1-2 [Compound 664] | > 7.00 |
| Clc1ccc2c(c1)-n1nncc1Cc1c(C3=NCC(c4ccncc4)O3)ncn1-2 (centres unmarked) [Compound 629] | > 7.00 |
| COCc1nnc2n1Cc1c(C#Cc3ccc(OCC4CC4)nc3)ncn1-c1ccc(Cl)cc1-2 [Compound 700] | > 7.00 |
| Cc1nc(-c2ncn3c2Cc2c(Cc4ccc(F)cc4)nnn2-c2cc(Cl)ccc2-3)no1 [Compound 496] | > 7.00 |
| COCc1nnc2n1Cc1c(C#Cc3ncccn3)ncn1-c1ccc(Cl)cc1-2 [Compound 571] | > 7.00 |
| COCc1nnc2n1Cc1c(-c3nc(C)no3)ncn1-c1ccc(-c3ccncc3)cc1-2 [Compound 468] | < 6.00 |
| COCc1nnc2n1Cc1c(C#Cc3ccc(O)nc3)ncn1-c1ccc(Cl)cc1-2 [Compound 568] | > 7.00 |
| COCc1nnc2n1Cc1c(C#Cc3ccc4ncccc4c3)ncn1-c1ccc(OC)cc1-2 [Compound 714] | > 7.00 |
| COCc1nnc2n1Cc1c(C#Cc3ccc(OC)c(C)n3)ncn1-c1ccc(OC)cc1-2 [Compound 586] | > 7.00 |
| COc1ccc(C#Cc2ncn3c2Cc2cnnn2-c2cc(C(F)(F)F)ccc2-3)nc1 [Compound 554] | > 7.00 |
| COc1ccc2c(c1)-n1nncc1Cc1c(C#Cc3ccc(C(F)(F)F)cn3)ncn1-2 [Compound 529] | 6.00 to 7.00 |
| Cn1nccc1C#Cc1ncn2c1Cc1cnnn1-c1cc(Cl)ccc1-2 [Compound 660] | > 7.00 |
| COCc1nnc2n1Cc1c(C#Cc3ccc(Cl)cn3)ncn1-c1ccc(Cl)cc1-2 [Compound 579] | > 7.00 |
| COCc1nnc2n1Cc1c(C#Cc3ccc(C(F)(F)F)cn3)ncn1-c1ccc(OC)cc1-2 [Compound 587] | > 7.00 |
| FC(F)(F)c1ccc2c(c1)-n1nncc1Cc1c(C3=N[C@H](c4ccccc4)CO3)ncn1-2 [Compound 506] | > 7.00 |
| COCc1nnc2n1Cc1c(C#Cc3ccc4nccn4c3)ncn1-c1ccc(OC)cc1-2 [Compound 684] | 6.00 to 7.00 |
| Fc1ccc(Cc2nnn3c2Cc2c(-c4ncco4)ncn2-c2ccc(OC(F)(F)F)cc2-3)cc1 [Compound 495] | 6.00 to 7.00 |
| COCc1nnc2n1Cc1c(C#Cc3cccc(OC)n3)ncn1-c1ccc(OC)cc1-2 [Compound 612] | > 7.00 |
| Clc1ccc([C@H]2CN=C(c3ncn4c3Cc3cnnn3-c3cc(Cl)ccc3-4)O2)cc1 [Compound 720] | > 7.00 |
